Five compounds from paper PMC3104040 (Bioorganic & medicinal chemistry, 2011) can be followed below.

Each structure is given as a SMILES string.

One data set concerns cowpox virus (Brighton). Description: organism not typed. Particulars: HFF, read-out: EC50 in cells infected with cowpox or vaccinia virus. It counts as cell-based.
The test system of a further data set is ECTV-Moscow strain. Description: organism not typed. It counts as cell-based, Ectromelia.
Data set [1] relates to Vaccinia virus (Copenhagen). Briefly: microbe, parasite or virus in culture. Conditions: Orthopoxvirus vaccinia, HFF, read-out: Vaccinia EC50. It counts as cell-based.

One may read the EC50 as the concentration at which the effect is half-maximal. Turning to `CC(C)CCCCCCCCCCCOCCCOP(=O)(O)CO[C@H](CO)Cn1ccc(N)nc1=O` [Compound 12M-TRDP-CDV, 12-methyl-tridecyloxypropyl-cidofovir], the EC50 in the data set with cowpox virus (Brighton) was 800 to 1000 nM.

For `C=CCCCCCCCCCCCCCCOCCOP(=O)(O)CO[C@H](CO)Cn1cnc2c(N)ncnc21` [HDNE-(S)-HPMPA, ω-hexadecenyloxyethyl-(S)-HPMPA], the “Ectromelia S.I. (selective index)” value in the data set with ECTV-Moscow strain amounted to 7. Moreover, the EC50 with ECTV-Moscow strain (BSC-1, read-out: antiviral activity (EC50), virus not specified) was in the range of 300 to 740 nM.

As to `CCCCCCCCCCCCCCCCOCCCOP(=O)(O)CO[C@H](CO)Cn1cnc2c(N)ncnc21` [HDP-(S)-HPMPA, hexadecyloxypropyl-(S)-HPMPA], the “% intact compound, human liver S9” value is on record as 92-93%.

`CCCCCCCCCCCCCCCCOCCCOP(=O)(O)CO[C@H](CO)Cn1ccc(N)nc1=O` [HDP-CDV, hexadecyloxypropyl-cidofovir]: the EC50 in data set [1] was determined as 80 ± 30 nM.

With `CCCCCCCCCCCCCCCCCCOC[C@@H](COP(=O)(O)CO[C@H](CO)Cn1ccc(N)nc1=O)OCc1ccccc1` [ODBG-CDV, 1-O-octadecyl-2-O-benzyl-sn-glyceryl-3-cidofovir], the “% compound remaining, Human S9” value (s9, 1.5 h) is reported as 91-92%.
